Source: ChEMBL document CHEMBL1201862, “PubChem BioAssay data set” (2004)
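These data come from cells grown in 96-well plates and exposed to compound for 48 hours at five concentrations. GI50 is the concentration that inhibits growth by half.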 Calls of active or inactive are those of the source. Rule as the data show it: active = GI50 up to about 1.1 µM and inactive = higher.

Tests used:
Experiment in all cases: NCI tumour cell line growth inhibition, 48 h
786-0 = test system: 786-0
A498 = test system: A498
A549 = test system: A549
ACHN = test system: ACHN
BT-549 = test system: BT-549
CAKI-1 = test system: CAKI-1
CCRF-CEM = test system: CCRF-CEM
COLO 205 = test system: COLO 205
DU-145 = test system: DU-145
EKVX = test system: EKVX
HCC 2998 = test system: HCC 2998
HCT-116 = test system: HCT-116
HCT-15 = test system: HCT-15
HL-60 = test system: HL-60
HOP-62 = test system: HOP-62
HOP-92 = test system: HOP-92
HT-29 = test system: HT-29
Hs-578T = test system: Hs-578T
IGROV-1 = test system: IGROV-1
KM12 = test system: KM12
LOX IMVI = test system: LOX IMVI
M14 = test system: M14
MCF7 = test system: MCF7
MDA-MB-231 = test system: MDA-MB-231
MDA-MB-435 = test system: MDA-MB-435
MOLT-4 = test system: MOLT-4
Malme-3M = test system: Malme-3M
NCI-H226 = test system: NCI-H226
NCI-H23 = test system: NCI-H23
NCI-H460 = test system: NCI-H460
NCI-H522 = test system: NCI-H522
NCI/ADR-RES = test system: NCI/ADR-RES
OVCAR-3 = test system: OVCAR-3
OVCAR-4 = test system: OVCAR-4
OVCAR-5 = test system: OVCAR-5
OVCAR-8 = test system: OVCAR-8
PC-3 = test system: PC-3
RPMI-8226 = test system: RPMI-8226
SF-268 = test system: SF-268
SF-295 = test system: SF-295
SF-539 = test system: SF-539
SK-MEL-28 = test system: SK-MEL-28
SK-MEL-2 = test system: SK-MEL-2
SK-MEL-5 = test system: SK-MEL-5
SK-OV-3 = test system: SK-OV-3
SN12C = test system: SN12C
SNB-19 = test system: SNB-19
SNB-75 = test system: SNB-75
SW-620 = test system: SW-620
T47D = test system: T47D
TK-10 = test system: TK-10
U-251 = test system: U-251
UACC-257 = test system: UACC-257
UACC-62 = test system: UACC-62

Nc1nc(Nc2cc(F)c(Cl)c(F)c2)cc(=O)[nH]1
GI50 (786-0): 76.4 µM (inactive) | GI50 (A498): 94.8 µM (inactive) | GI50 (A549): 76.4 µM (inactive) | GI50 (ACHN): 84.7 µM (inactive) | GI50 (BT-549): 60.3 µM (inactive) | GI50 (CAKI-1): > 100 µM (inactive) | GI50 (CCRF-CEM): 66.8 µM (inactive) | GI50 (COLO 205): > 100 µM (inactive) | GI50 (DU-145): > 100 µM (inactive) | GI50 (EKVX): 61.1 µM (inactive) | GI50 (HCC 2998): 15.9 µM (inactive) | GI50 (HCT-116): 74.3 µM (inactive) | GI50 (HCT-15): > 100 µM | GI50 (HL-60): 44.3 µM (inactive) | GI50 (HOP-62): > 100 µM (inactive) | GI50 (HOP-92): 77.3 µM (inactive) | GI50 (HT-29): > 100 µM (inactive) | GI50 (Hs-578T): 18.1 µM (inactive) | GI50 (IGROV-1): > 100 µM (inactive) | GI50 (KM12): 27 µM (inactive) | GI50 (LOX IMVI): > 100 µM (inactive) | GI50 (M14): 41.5 µM (inactive) | GI50 (MCF7): 75.9 µM (inactive) | GI50 (MDA-MB-231): 68.2 µM (inactive) | GI50 (MDA-MB-435): 44.4 µM (inactive) | GI50 (MOLT-4): 55.6 µM (inactive) | GI50 (Malme-3M): > 100 µM (inactive) | GI50 (NCI-H226): > 100 µM (inactive) | GI50 (NCI-H23): 95.9 µM (inactive) | GI50 (NCI-H460): > 100 µM (inactive) | GI50 (NCI-H522): 28.4 µM (inactive) | GI50 (NCI/ADR-RES): > 100 µM (inactive) | GI50 (OVCAR-3): > 100 µM (inactive) | GI50 (OVCAR-4): > 100 µM (inactive) | GI50 (OVCAR-5): > 100 µM (inactive) | GI50 (OVCAR-8): > 100 µM (inactive) | GI50 (PC-3): > 100 µM (inactive) | GI50 (RPMI-8226): 56.4 µM (inactive) | GI50 (SF-268): 74.5 µM (inactive) | GI50 (SF-295): 44.9 µM (inactive) | GI50 (SF-539): > 100 µM (inactive) | GI50 (SK-MEL-28): > 100 µM (inactive) | GI50 (SK-MEL-2): 71.4 µM (inactive) | GI50 (SK-MEL-5): 53.5 µM (inactive) | GI50 (SK-OV-3): 68.1 µM (inactive) | GI50 (SN12C): > 100 µM (inactive) | GI50 (SNB-19): 37 µM (inactive) | GI50 (SNB-75): 30.7 µM (inactive) | GI50 (SW-620): 91 µM (inactive) | GI50 (T47D): 77.6 µM (inactive) | GI50 (TK-10): > 100 µM (inactive) | GI50 (U-251): 81.7 µM (inactive) | GI50 (UACC-257): > 100 µM (inactive) | GI50 (UACC-62): 68.9 µM (inactive)
